In data set [1] the test system is ICR male or female mice. The data set is described as follows: Acute toxicity evaluation in mice, intravenous. The data set is classed as in vivo, mouse. Particulars: intravenous doses of 5 and 10 mg/kg, deaths recorded at 3, 24, 48 and 72 hours. The procedure:
Compound 20 was formulated in 5% dextrose in water (w/v)/PEG 400 (4:1 v/v) to a maximum concentration of 8 mg/mL. The solution was passed through a 0.8/0.2 micron filter before administration.
ICR male or female mice weighing 20–22 g were maintained in a hygienic environment under controlled temperature (22–24° C.) and humidity (60–80%) with 12-hour light/dark cycles for at least one week. Free access to standard lab chow for mice and tap water was granted.
Three mice/dose (5 and 10 mg/kg) were intravenously administered test compound. Animal deaths were recorded at 3, 24, 48 and 72 hours after treatment.

Data set [2] deals with T1, human serotonin 5-HT2C receptor (Homo sapiens, UniProt P28335).
T1 construct: expressed in transfected cells; host or cells: CHO-K1
T1 sequence (P28335 33-458): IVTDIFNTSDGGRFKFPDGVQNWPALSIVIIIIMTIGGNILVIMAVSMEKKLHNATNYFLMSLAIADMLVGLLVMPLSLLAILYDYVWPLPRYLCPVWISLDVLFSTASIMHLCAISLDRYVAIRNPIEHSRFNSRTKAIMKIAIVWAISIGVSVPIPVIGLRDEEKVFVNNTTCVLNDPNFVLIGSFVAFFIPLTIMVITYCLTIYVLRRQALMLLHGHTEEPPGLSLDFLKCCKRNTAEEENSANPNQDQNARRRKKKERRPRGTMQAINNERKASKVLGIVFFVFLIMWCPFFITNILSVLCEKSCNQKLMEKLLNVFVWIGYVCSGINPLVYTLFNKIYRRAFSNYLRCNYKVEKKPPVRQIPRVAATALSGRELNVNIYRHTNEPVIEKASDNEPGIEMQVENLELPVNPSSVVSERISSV
The data set can be described thus: Radioligand binding assay, human 5-HT2C receptors ([3H]Mesulergine). Conditions: human 5-HT2c, Example 16 table. A digest of the protocol: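 Membranes from CHO-K1 cells stably expressing human 5-HT2C receptor were prepared in modified Tris-HCl pH 7.7 buffer. Non-specific binding was defined with 1 μM mianserin.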

Data set [3] addresses T2, human serotonin 5-HT2B receptor (Homo sapiens, UniProt P41595).
T2 construct: expressed in transfected cells; host or cells: CHO-K1
The data set can be described thus: Radioligand binding assay, human 5-HT2B receptors ([3H]LSD). The method, then:
This assay measures binding of [^3H]LSD to human serotonin 5-HT2B receptors. CHO-K1 cells stably transfected with a plasmid encoding the human serotonin 5-HT2B receptor were used to prepare membranes in modified Tris-HCl pH 7.4 buffer using standard techniques. […] Non-specific binding was estimated in the presence of 10 μM serotonin. Membranes were filtered and washed 3 times and the filters were counted to determine [^3H]LSD specifically bound. See Bonhaus, D. W. et al. “The pharmacology and distribution of human 5-hydroxytryptamine2B (5-HT2B) receptor gene products: comparison with 5-HT2A and 5-HT2C receptors” Brit.
The human 5-HT2b screen was conducted according to Wolf, W. A. et al. J. Neurochem.

The target of data set [4] is T3, human serotonin 5-HT2A receptor (Homo sapiens, UniProt P28223).
T3 construct: expressed in transfected cells; host or cells: CHO-K1
The data set can be described thus: Radioligand binding assay, human 5-HT2A receptors ([3H]Ketanserin). Conditions: human 5-HT2a, Example 16 table.

Data set [5] deals with T4, human serotonin 5-HT6 receptor (Homo sapiens, UniProt P50406).
T4 construct: expressed in transfected cells; host or cells: HeLa/E6-7
The data set is described as follows: Radioligand binding assay, human 5-HT6 receptors ([3H]LSD). Conditions: Example 16 table. A digest of the protocol:
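Membranes from HeLa/E6–7 cells stably expressing human 5-HT6, in modified Tris-HCl pH 7.4, incubated (30 μg) with 1.5 nM [3H]LSD for 120 min at 37° C. Non-specific binding defined with 5 μM 5-HT; bound ligand measured by filtration and counting.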

For data set [6], the target named is T5, human dopamine D3 receptor (Homo sapiens, UniProt P35462).
T5 construct: expressed in transfected cells; host or cells: CHO
The data set is described as follows: Radioligand binding assay, human dopamine D3 receptors ([3H]Spiperone). Conditions: Example 20 table.

Data set [7] addresses T6, human dopamine transporter (Homo sapiens, UniProt Q01959).
T6 construct: expressed in transfected cells; host or cells: CHO-K1
The data set is described as follows: Binding to human dopamine transporter ([125I]RTI-55). The method, then:
CHO-K1 cell membranes stably transfected with a plasmid encoding the human dopamine transporter were prepared in modified Tris-HCl pH 7.4 buffer using standard techniques. […] Non-specific binding was estimated in the presence of 10 μM nomifensine. […] Trends. […]

[8] abbreviates: human 5-HT2b, Example 16 table, read-out: IC50 (nM) 5-HT2b.
[9] abbreviates: human 5-HT6, read-out: IC50 (nM) 5-HT6.
The mark [10] stands for this setting: read-out: IC50 (nM) Against Human D3 Receptors.
Where [11] appears, read: human, Example 101 table, read-out: IC50 (nM) DAT.

Where two headings read alike, the source gives them in different places.

T6 sequence (Q01959 whole entry): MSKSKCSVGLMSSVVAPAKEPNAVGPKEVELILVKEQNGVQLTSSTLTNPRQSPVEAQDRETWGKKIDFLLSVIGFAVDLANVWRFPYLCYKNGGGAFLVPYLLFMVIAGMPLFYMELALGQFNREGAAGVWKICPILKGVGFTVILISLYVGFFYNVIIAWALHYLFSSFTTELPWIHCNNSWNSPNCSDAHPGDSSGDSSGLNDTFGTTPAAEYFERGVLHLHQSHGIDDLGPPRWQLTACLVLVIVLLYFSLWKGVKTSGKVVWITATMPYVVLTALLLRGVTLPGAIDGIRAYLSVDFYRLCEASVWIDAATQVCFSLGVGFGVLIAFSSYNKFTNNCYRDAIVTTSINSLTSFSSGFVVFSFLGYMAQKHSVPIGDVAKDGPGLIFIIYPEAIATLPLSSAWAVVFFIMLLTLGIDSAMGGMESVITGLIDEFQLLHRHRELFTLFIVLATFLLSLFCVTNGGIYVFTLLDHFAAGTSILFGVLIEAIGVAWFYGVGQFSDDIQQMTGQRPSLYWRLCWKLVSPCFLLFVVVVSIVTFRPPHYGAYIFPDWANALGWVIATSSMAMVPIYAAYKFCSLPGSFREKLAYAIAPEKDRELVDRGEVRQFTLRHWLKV
T5 sequence (P35462 whole entry): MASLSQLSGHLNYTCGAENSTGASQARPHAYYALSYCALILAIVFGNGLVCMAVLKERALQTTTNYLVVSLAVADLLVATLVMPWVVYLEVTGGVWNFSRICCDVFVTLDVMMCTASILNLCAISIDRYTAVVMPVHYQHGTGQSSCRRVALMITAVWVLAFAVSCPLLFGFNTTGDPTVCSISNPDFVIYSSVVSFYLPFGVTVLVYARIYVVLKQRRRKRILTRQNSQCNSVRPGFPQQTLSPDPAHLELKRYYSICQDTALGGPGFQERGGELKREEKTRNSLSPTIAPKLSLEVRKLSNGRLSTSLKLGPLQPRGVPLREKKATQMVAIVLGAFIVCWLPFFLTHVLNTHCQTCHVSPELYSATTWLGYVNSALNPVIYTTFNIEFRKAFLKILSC
T2 sequence (P41595 whole entry): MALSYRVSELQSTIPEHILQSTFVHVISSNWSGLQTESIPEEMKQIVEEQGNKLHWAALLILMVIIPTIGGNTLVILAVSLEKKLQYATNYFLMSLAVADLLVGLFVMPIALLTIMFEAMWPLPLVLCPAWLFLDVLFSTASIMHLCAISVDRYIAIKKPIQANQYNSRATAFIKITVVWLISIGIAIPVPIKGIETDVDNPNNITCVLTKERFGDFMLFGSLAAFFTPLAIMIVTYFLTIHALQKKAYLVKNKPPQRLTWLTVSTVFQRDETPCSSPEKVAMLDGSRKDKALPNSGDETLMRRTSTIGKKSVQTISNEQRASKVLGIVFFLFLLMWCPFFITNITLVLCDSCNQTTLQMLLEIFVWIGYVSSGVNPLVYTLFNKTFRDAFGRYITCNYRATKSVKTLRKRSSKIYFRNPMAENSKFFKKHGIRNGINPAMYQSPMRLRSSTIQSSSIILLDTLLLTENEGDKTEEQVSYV
T4 sequence (P50406 whole entry): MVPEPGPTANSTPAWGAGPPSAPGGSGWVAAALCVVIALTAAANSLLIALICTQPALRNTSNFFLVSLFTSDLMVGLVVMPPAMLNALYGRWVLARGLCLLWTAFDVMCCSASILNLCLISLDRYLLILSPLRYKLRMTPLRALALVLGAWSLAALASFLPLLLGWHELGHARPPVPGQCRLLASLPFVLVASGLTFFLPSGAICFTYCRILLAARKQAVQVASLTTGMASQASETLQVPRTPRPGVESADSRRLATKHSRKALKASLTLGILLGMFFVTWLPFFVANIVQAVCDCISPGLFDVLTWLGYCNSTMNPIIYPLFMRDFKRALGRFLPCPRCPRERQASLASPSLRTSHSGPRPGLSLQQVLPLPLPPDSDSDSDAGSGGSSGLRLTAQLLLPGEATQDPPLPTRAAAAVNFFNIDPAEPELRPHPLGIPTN
T3 sequence (P28223 whole entry): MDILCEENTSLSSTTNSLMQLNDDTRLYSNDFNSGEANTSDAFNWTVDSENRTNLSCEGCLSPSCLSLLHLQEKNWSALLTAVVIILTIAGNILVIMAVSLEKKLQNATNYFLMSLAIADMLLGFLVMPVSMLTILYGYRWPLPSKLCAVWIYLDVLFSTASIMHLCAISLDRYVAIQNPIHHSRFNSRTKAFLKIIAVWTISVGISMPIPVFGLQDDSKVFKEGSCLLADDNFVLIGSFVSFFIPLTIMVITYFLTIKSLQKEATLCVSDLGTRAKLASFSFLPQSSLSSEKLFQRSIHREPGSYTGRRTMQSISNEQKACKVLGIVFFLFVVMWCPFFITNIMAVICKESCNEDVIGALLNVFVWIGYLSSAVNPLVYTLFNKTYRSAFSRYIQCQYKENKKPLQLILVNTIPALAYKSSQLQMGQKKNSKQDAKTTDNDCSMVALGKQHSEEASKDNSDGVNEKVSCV

`CCN(CC)CCCNc1nc(C2(c3ccc(Cl)cc3)CCC2)cs1.O=C(O)CC(O)(CC(=O)O)C(=O)O` [Compound 20, N′-{4-[1-(4-chlorophenyl)cyclobutyl]thiazol-2-yl}-N,N-diethylpropane-1,3-diamine citrate salt]: in data set [1], the Animal deaths entry is listed as “no deaths were observed”.

`CN1CCN(c2nc(C3(c4ccc(Cl)cc4)CCOCC3)cs2)CC1` [Compound 29, 1-{4-[4-(4-chlorophenyl)tetrahydropyran-4-yl]-thiazol-2-yl}-4-methylpiperazine]: the IC50 was below 1000 nM in data set [2] (IC50 (nM) 5-HT2c); above 1000 nM in data set [3]; above 1000 nM in data set [4] (IC50 (nM) 5-HT2a); below 100 nM in data set [5] (IC50 (nM) 5-HT6, human 5-HT6); below 1000 nM in data set [6] (IC50 (nM) Against Human D3 Receptors); below 1000 nM in data set [7].

Turning to `CN1CCN(c2nc(C3(c4ccc(Cl)cc4)CCC3)cs2)CC1` [Compound 27, 1-{4-[1-(4-chlorophenyl)cyclobutyl]thiazol-2-yl}-4-methylpiperazine], the IC50 in data set [2] (read-out: IC50 (nM) 5-HT2c) is below 1000 nM; in data set [3] (setting [8]), below 1000 nM; in data set [4] (read-out: IC50 (nM) 5-HT2a) it was below 1000 nM; in data set [5] (setting [9]), below 1000 nM; in data set [6] (setting [10]) it was below 1000 nM; in data set [7] (setting [11]), below 500 nM.

Regarding `CN1CCN(c2nc(CCc3ccc(Cl)cc3)cs2)CC1` [Compound 32], the 50% inhibitory concentration (IC50) was below 100 nM in data set [2] (read-out: IC50 (nM) 5-HT2c); below 1000 nM in data set [3] (setting [8]); below 100 nM in data set [4] (read-out: IC50 (nM) 5-HT2a); above 1000 nM in data set [5] (setting [9]); above 1000 nM in data set [6] (setting [10]); above 1000 nM in data set [7] (setting [11]).

For `CN1CCN(c2nc(C3(c4ccc(Cl)cc4)CCC3)no2)CC1` [Compound 28, 1-{3-[1-(4-chlorophenyl)cyclobutyl]-[1,2,4]oxadiazol-5-yl}-4-methylpiperazine], the IC50 in data set [2] (read-out: IC50 (nM) 5-HT2c), in data set [3] (setting [8]), in data set [4] (read-out: IC50 (nM) 5-HT2a), in data set [5] (setting [9]), in data set [6] (setting [10]) and in data set [7] (setting [11]) was above 1000 nM throughout.

On to `CN1CCCC1CCNc1nc(C2(c3ccc(Cl)cc3)CCC2)cs1` (stereo not shown) [Compound 24, {4-[1-(4-chlorophenyl)-cyclobutyl]thiazol-2-yl}-[2-(1-methylpyrrolidin-2-yl)ethyl]amine], for which the IC50 was below 10 nM in data set [2] (read-out: IC50 (nM) 5-HT2c); below 100 nM in data set [3] (setting [8]); below 100 nM in data set [4] (read-out: IC50 (nM) 5-HT2a); below 1000 nM in data set [5] (setting [9]); below 1000 nM in data set [6] (setting [10]); below 500 nM in data set [7] (setting [11]).

Values taken from patent US7087623B2, “Thiazole and other heterocyclic ligands for mammalian dopamine, muscarinic and serotonin receptors and transporters, and methods of use thereof” (Sepracor Inc., priority 2001, dated 2006).
